pEC50: −log10 of the molar value.
test system: TNFα; experiment: IRAK4 Monocyte TNFα Cell Based Assay; set-up: species or system human; conditions: Homo sapiens, Monocyte, read-out: EC50 MONO TNF HTRF
Summary of the method: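 TNFα release quantified by HTRF (cryptate/XL665 antibody pair, overnight at RT) after 1 h compound pre-incubation (0.1% DMSO) and 4 h LPS challenge at 50 pg/ml, 37 °C, 5,000 monocytes per well. Signal ratio normalised between unstimulated (0%) and stimulated (100%) controls.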

SMILES	pEC50
CN1CCC(C(=O)N2C3CC2CN(c2nnc(-c4cnc(-c5ccc6cc(C#N)cnn56)cc4NC4(C)COC4)s2)C3)CC1 [Example 118, 7-(4((3-methyloxetan-3-yl)amino)-5-(5-(6-(1-methylpiperidine-4-carbonyl)-3,6-diazabicyclo[3.1.1]heptan-3-yl)-1,3,4-thiadiazol-2-yl)pyridin-2-yl)pyrrolo[1,2-b]pyridazine-3-carbonitrile]	7.54
CC(C)Nc1cc(-c2ccc3cc(C#N)cnn23)ncc1-c1nnc(N2CC3CC(C2)N3C(=O)CN=S(C)(C)=O)s1 [Example 107, 7-(5-(5-(6-(2-((dimethyl(oxo)-16-sulfanylidene)amino)acetyl)-3,6-diazabicyclo[3.1.1]heptan-3-yl)-1,3,4-thiadiazol-2-yl)-4-(isopropylamino)pyridin-2-yl)pyrrolo[1,2-b]pyridazine-3-carbonitrile]	7.74

same assay, conditions: human monocytes; second part of Table 2, compounds 33-343; unit inferred; read-out: EC50 MONO TNF HTRF

pEC50	SMILES
8.19	CC(=O)N[C@@H]1[C@@H]2C[C@H]1CN(c1nnc(-c3cnc(-c4ccc5cc(C#N)cnn45)cc3NC3COC3)s1)C2 [Example 179, N-((1R,5S,6s)-3-(5-(6-(3-cyanopyrrolo[1,2-b]pyridazin-7-yl)-4-(oxetan-3-ylamino)pyridin-3-yl)-1,3,4-thiadiazol-2-yl)-3-azabicyclo[3.1.1]heptan-6-yl)acetamide]
7.72	CC(=O)N[C@@H]1CN(c2nnc(-c3cnc(-c4ccc5cc(C#N)cnn45)cc3NC(C)C)s2)CC12CC2 [Compound 324]
8.36	CC(=O)N1CCC2(CC1)CN(c1nnc(-c3cnc(-c4ccc5cc(C#N)cnn45)cc3NC3CCOCC3)s1)C2 [Example 76, 7-(5-(5-(7-acetyl-2,7-diazaspiro[3.5]nonan-2-yl)-1,3,4-hiadiazol-2-yl)-4-((tetrahydro-2H-pyran-4-yl)amino)pyridin-2-yl)pyrrolo[1,2-b]pyridazine-3-carbonitrile]
8.05	CC(=O)N[C@H]1[C@@H]2CN(c3nnc(-c4cnc(-c5ccc6cc(C#N)cnn56)cc4NC(C)C)s3)C[C@@H]21 [Compound 240, N-((1R,5S,6s)-3-(5-(6-(3-cyanopyrrolo[1,2-b]pyridazin-7-yl)-4-(isopropylamino)pyridin-3-yl)-1,3,4-thiadiazol-2-yl)-3-azabicyclo[3.1.0]hexan-6-yl)acetamide]
8.46	CC(=O)N[C@@H]1[C@@H]2C[C@H]1CN(c1nnc(-c3cnc(-c4ccc5cc(C#N)cnn45)cc3N[C@H](C)C#N)s1)C2 [Example 174, N-((1R,5S,6S)-3-(5-(4-(((R)-1-cyanoethyl)amino)-6-(3-cyanopyrrolo[1,2-b]pyridazin-7-yl)pyridin-3-yl)-1,3,4-thiadiazol-2-yl)-3-azabicyclo[3.1.1]heptan-6-yl)acetamide]
7.85	CC(=O)N[C@H]1CC[C@H](c2nnc(-c3cnc(-c4ccc5cc(C#N)cnn45)cc3NC3(C)CCOCC3)s2)CC1 [Compound 268, N-((1r,4r)-4-(5-(6-(3-cyanopyrrolo[1,2-b]pyridazin-7-yl)-4-((4-methyltetrahydro-2H-pyran-4-yl)amino)pyridin-3-yl)-1,3,4-thiadiazol-2-yl)cyclohexyl)acetamide]
7.65	CNc1cc(-c2ccc3cc(C#N)cnn23)ncc1-c1nnc([C@H]2C[C@H](NC(C)=O)C2)s1 [Example 282, N-((1r,3r)-3-(5-(6-(3-cyanopyrrolo[1,2-b]pyridazin-7-yl)-4-(methylamino)pyridin-3-yl)-1,3,4-thiadiazol-2-yl)cyclobutyl)acetamide]
5.74	CC(C)Nc1cc(-c2ccc3cc(C#N)cnn23)ncc1-c1nnc(C(=O)N[C@H]2C[C@H](O)C2)s1 [Example 213, 5-(6-(3-cyanopyrrolo[1,2-b]pyridazin-7-yl)-4-(isopropylamino)pyridin-3-yl)-N-((1r,3r)-3-hydroxycyclobutyl)-1,3,4-thiadiazole-2-carboxamide]
8.32	CC(=O)NC1CCC(c2nnc(-c3cnc(-c4ccc5cc(C#N)cnn45)cc3NC34CCC(O)(CC3)CC4)s2)CC1 (stereo not shown) [Compound 241, N-((1r,4r)-4-(5-(6-(3-cyanopyrrolo[1,2-b]pyridazin-7-yl)-4-((4-hydroxybicyclo[2.2.2]octan-1-yl)amino)pyridin-3-yl)-1,3,4-thiadiazol-2-yl)cyclohexyl)acetamide]
8.74	CN1CCN(C(=O)N[C@@H]2[C@@H]3CC[C@H]2CN(c2nnc(-c4cnc(-c5ccc6cc(C#N)cnn56)cc4NC4(C)COC4)s2)C3)CC1 [Example 110, N-((1R,5S,8s)-3-(5-(6-(3-cyanopyrrolo[1,2-b]pyridazin-7-yl)-4-((3-methyloxetan-3-yl)amino)pyridin-3-yl)-1,3,4-thiadiazol-2-yl)-3-azabicyclo[3.2.1]octan-8-yl)-4-methylpiperazine-1-carboxamide]
8.14	CC(C)Nc1cc(-c2ccc3cc(C#N)cnn23)ncc1-c1nnc(N2C[C@H]3CC[C@@H](C2)[C@@]3(C)O)s1 [Example 153, 7-(5-(5-((1R,55,8r)-8-hydroxy-8-methyl-3-azabicyclo[3.2.1]octan-3-yl)-1,3,4-thiadiazol-2-yl)-4-(isopropylamino)pyridin-2-yl)pyrrolo[1,2-b]pyridazine-3-carbonitrile]
7.27	CC(C)Nc1cc(-c2ccc3cc(C#N)cnn23)ncc1-c1nnc(CC#N)s1 [Compound 321]
6.07	CC(C)Nc1cc(-c2ccc3cc(C#N)cnn23)ncc1-c1nnc(C(=O)N[C@H]2C[C@@](C)(O)C2)s1 [Example 218, 5-(6-(3-cyanopyrrolo[1,2-b]pyridazin-7-yl)-4-(isopropylamino)pyridin-3-yl)-N-((1s,3s)-3-hydroxy-3-methylcyclobutyl)-1,3,4-thiadiazole-2-carboxamide]
8.23	CC(C)Nc1cc(-c2ccc3cc(C#N)cnn23)ncc1-c1nnc([C@H]2CC[C@H](NC(=O)N3CCOCC3)CC2)s1 [Example 139, N-((1r,4r)-4-(5-(6-(3-cyanopyrrolo[1,2-]Apyridazin-7-yl)-4-(isopropylamino)pyridin-3-yl)-1,3,4-thiadiazol-2-yl)cyclohexyl)morpholine-4-carboxamide]
8.17	CC(C)Nc1cc(-c2ccc3cc(C#N)cnn23)ncc1-c1nnc(N2C[C@H]3CC[C@@H](C2)[C@@H]3NC(=O)N2CCOCC2)s1 [Example 57, N-((1R,5S,8s)-3-(5-(6-(3-cyanopyrrolo[1,2-b]pyridazin-7-yl)-4-(isopropylamino)pyridin-3-yl)-1,3,4-thiadiazol-2-yl)-3-azabicyclo[3.2.1]octan-8-yl)morpholine-4-carboxamide]
8.08	CC(=O)N[C@@H]1C[C@H]2CC[C@@H](C1)N2c1nnc(-c2cnc(-c3ccc4cc(C#N)cnn34)cc2NC(C)C)s1 [Example 56, N-((1R,3s,5S)-8-(5-(6-(3-cyanopyrrolo[1,2-b]pyridazin-7-yl)-4-(isopropylamino)pyridin-3-yl)-1,3,4-thiadiazol-2-yl)-8-azabicyclo[3.2.1]octan-3-yl)acetamide]
8.05	CC(=O)N[C@@H]1[C@@H]2C[C@H]1CN(c1nnc(-c3cnc(-c4ccc5cc(C#N)cnn45)cc3NC3(C)COC3)s1)C2 [Example 175, N-((1R,5S,6s)-3-(5-(6-(3-cyanopyrrolo[1,2-b]pyridazin-7-yl)-4-((3-methyloxetan-3-yl)amino)pyridin-3-yl)-1,3,4-thiadiazol-2-yl)-3-azabicyclo[3.1.1]heptan-6-yl)acetamide]

From patent publication US11046686B2, “Thiadiazole IRAK4 compounds” (Gilead Sciences, Inc., priority 2018, dated 2021)
